For orientation: ED50 means the dose that gives a 50% effect, or the effect in half of the subjects. In general, Inhibition refers to the change of the read-out against control, counted positive when it falls. Low values mean a response near the control, high ones a response far below the control. One may read the inhibition in vivo as how much of the control response was suppressed.

Active and inactive are the calls of the source. No cut-off for these calls is given here.

Data on 22 compounds can be found in ChEMBL document CHEMBL1124295, “Synthesis and oral antiallergic activity of carboxylic acids derived from imidazo[2,1-c][1,4]benzoxazines, imidazo[1,2-a]quinolines, imidazo[1,2-a]quinoxalines, imidazo[1,2-a]quinoxalinones, pyrrolo[1,2-a]quinoxalinones, pyrrolo[2,3-a]quinoxalinones, and imidazo[2,1-b]benzothiazoles” (1988).

Test [1] has as its system Rattus norvegicus. The experiment in a line: Inhibition of the IgE-mediated passive cutaneous anaphylaxis (PCA) reaction in rat after oral administration; Range 2.89-3.99. It counts as functional.
Test [2] concerns Rattus norvegicus. The experiment in a line: Inhibition of the IgE-mediated passive cutaneous anaphylaxis (PCA) reaction in rat after intravenous administration; Range 0.0103-0.0214. It counts as functional.
For test [3], the system named is Rattus norvegicus. The experiment in a line: Inhibition of the IgE-mediated passive cutaneous anaphylaxis (PCA) reaction in rat after oral administration of 10 mg/Kg of compound. It counts as functional.
In test [4] the test system is Rattus norvegicus. The experiment in a line: Inhibition of the IgE-mediated passive cutaneous anaphylaxis (PCA) reaction in rat after oral administration; Range 2.51-4.1. It counts as functional.
Test [5] has as its system Rattus norvegicus. The experiment in a line: Inhibition of the IgE-mediated passive cutaneous anaphylaxis (PCA) reaction in rat after intravenous administration; Range 0.08-0.37. The test is classed as functional.
For test [6], the system named is Rattus norvegicus. The experiment in a line: Inhibition of the IgE-mediated passive cutaneous anaphylaxis (PCA) reaction in rat after intravenous administration; Range 2.22-5.31. The test is classed as functional.
Test [7] has as its system Rattus norvegicus. The experiment in a line: Inhibition of the IgE-mediated passive cutaneous anaphylaxis (PCA) reaction in rat after oral administration; Range 0.06-0.199. It counts as functional.
In test [8] the test system is Rattus norvegicus. The experiment in a line: Inhibition of the IgE-mediated passive cutaneous anaphylaxis (PCA) reaction in rat after intravenous administration; Range 0.013-0.023. It counts as functional.
The test system of test [9] is Rattus norvegicus. The experiment in a line: Inhibition of the IgE-mediated passive cutaneous anaphylaxis (PCA) reaction in rat after intravenous administration; Range 0.043-0.12. The test is classed as functional.
The subject of test [10] is Rattus norvegicus. The experiment in a line: Inhibition of the IgE-mediated passive cutaneous anaphylaxis (PCA) reaction in rat after intravenous administration; Range 1.31-4.63. The test is classed as functional.
Test [11] has as its system Rattus norvegicus. The experiment in a line: Inhibition of the IgE-mediated passive cutaneous anaphylaxis (PCA) reaction in rat after intravenous administration; Range 0.072-0.41. It counts as functional.
Test [12] deals with Rattus norvegicus. The experiment in a line: Inhibition of the IgE-mediated passive cutaneous anaphylaxis (PCA) reaction in rat after intravenous administration; Range 0.34-0.45. It counts as functional.
Test [13] concerns Rattus norvegicus. The experiment in a line: Inhibition of the IgE-mediated passive cutaneous anaphylaxis (PCA) reaction in rat after oral administration; Range 5.21-7.35. It counts as functional.
The subject of test [14] is Rattus norvegicus. The experiment in a line: Inhibition of the IgE-mediated passive cutaneous anaphylaxis (PCA) reaction in rat after intravenous administration; Range 0.22-0.59. The test is classed as functional.
The test system of test [15] is Rattus norvegicus. The experiment in a line: Inhibition of the IgE-mediated passive cutaneous anaphylaxis (PCA) reaction in rat after oral administration; Range 0.07-0.03. It counts as functional.
Test [16] has as its system Rattus norvegicus. The experiment in a line: Inhibition of the IgE-mediated passive cutaneous anaphylaxis (PCA) reaction in rat after intravenous administration; Range 0.004-0.006. The test is classed as functional.
Test [17] concerns Rattus norvegicus. The experiment in a line: Inhibition of the IgE-mediated passive cutaneous anaphylaxis (PCA) reaction in rat after intravenous administration; Range 0.058-0.12. It counts as functional.
Test [18] relates to Rattus norvegicus. The experiment in a line: Inhibition of the IgE-mediated passive cutaneous anaphylaxis (PCA) reaction in rat after oral administration; Inactive(45% inhibition at 20 mg/kg). The test is classed as functional.
Test [19] has as its system Rattus norvegicus. The experiment in a line: Inhibition of the IgE-mediated passive cutaneous anaphylaxis (PCA) reaction in rat after oral administration; Range 0.74-2.02. The test is classed as functional.
Test [20] relates to Rattus norvegicus. The experiment in a line: Inhibition of the IgE-mediated passive cutaneous anaphylaxis (PCA) reaction in rat after intravenous administration; Range 0.12-1.07. The test is classed as functional.
Test [21] has as its system Rattus norvegicus. The experiment in a line: Inhibition of the IgE-mediated passive cutaneous anaphylaxis (PCA) reaction in rat after oral administration; NA means inactive at 1 and 10 mg/Kg. It counts as functional, organism-based.
Test [22] concerns Rattus norvegicus. The experiment in a line: Inhibition of the IgE-mediated passive cutaneous anaphylaxis (PCA) reaction in rat after intravenous administration; Range 0.1-0.44. The test is classed as functional.
Test [23] concerns Rattus norvegicus. The experiment in a line: Inhibition of the IgE-mediated passive cutaneous anaphylaxis (PCA) reaction in rat after intravenous administration; Range 2.20-3.00. The test is classed as functional.
Test [24] concerns Rattus norvegicus. The experiment in a line: Inhibition of the IgE-mediated passive cutaneous anaphylaxis (PCA) reaction in rat after intravenous administration; Range 1.07-3.93. It counts as functional.
The test system of test [25] is Rattus norvegicus. The experiment in a line: Inhibition of the IgE-mediated passive cutaneous anaphylaxis (PCA) reaction in rat after intravenous administration; Range 0.066-0.453. It counts as functional.
The subject of test [26] is Rattus norvegicus. The experiment in a line: Inhibition of the IgE-mediated passive cutaneous anaphylaxis (PCA) reaction in rat after oral administration; Range 0.021-0.089. The test is classed as functional.
The test system of test [27] is Rattus norvegicus. The experiment in a line: Inhibition of the IgE-mediated passive cutaneous anaphylaxis (PCA) reaction in rat after oral administration at concentration of 10 mg/Kg of compound. It counts as functional.
The test system of test [28] is Rattus norvegicus. The experiment in a line: Inhibition of the IgE-mediated passive cutaneous anaphylaxis (PCA) reaction in rat after intravenous administration; Range 0.08-1.71. It counts as functional.

With `COC(=O)c1cn2c(n1)COc1ccc(NC(C)=O)cc1-2`, in the test with Rattus norvegicus [1], the ED50 was found to be 3.48 mg/kg. `O=C(O)C(=O)Nc1ccc2c(c1)-n1cc(C(=O)O)nc1CO2` gave an ED50 in the test on Rattus norvegicus [2] of 0.0172 mg/kg. `O=C(OCC(O)CO)c1cn2c(ccc3ccccc32)n1` (stereo not drawn): the Inhibition in the test with Rattus norvegicus [3] was determined as 47%.

As to `O=C(OCCCl)c1cn2c(ccc3ccccc32)n1`, in the test on Rattus norvegicus [4], the ED50 is 3.5 mg/kg. `CCc1ccc2ccc3nc(C(=O)O)cn3c2c1`: the ED50 in the test on Rattus norvegicus [5] came to 0.16 mg/kg. In turn, `COc1ccc2ccc3nc(CN)cn3c2c1.Cl.Cl` displayed a 50% effective dose (ED50) in the test with Rattus norvegicus [6] of 3.39 mg/kg. Consider `CCCCn1c(=O)c2cc(C(=O)O)cn2c2ccc(Cl)cc21`, for which the figures for the ED50 in the test on Rattus norvegicus [7] and with Rattus norvegicus [8] were 0.114 mg/kg and 0.019 mg/kg, respectively. `C[S+]([O-])c1ccc2ccc3nc(C(=O)O)cn3c2c1` (stereo not drawn) had an ED50 in the test with Rattus norvegicus [9] of 0.076 mg/kg. In the case of `O=C(O)c1cn2c(n1)COc1ccc([N+](=O)[O-])cc1-2`, the 50% effect level in the test with Rattus norvegicus [10] (ED50) was put at a dose of 2.22 mg/kg. On to `COc1cccc2sc3nc(C(=O)O)cn3c12`, for which, in the test with Rattus norvegicus [11], the 50% effect level (ED50) was put at a dose of 0.16 mg/kg. Turning to `O=C(O)c1cn2c(n1)CCc1ccccc1-2`, the ED50 in the test on Rattus norvegicus [12] is 0.39 mg/kg; with Rattus norvegicus [13], 6.14 mg/kg.

With `C[S+](=N)([O-])c1cc2nc(C(=O)O)cn2c2ccccc12` (stereo not drawn), the ED50 in the test with Rattus norvegicus [14] was found to be 0.35 mg/kg. In the case of `CCCCCCc1cc([S+](C)(=N)[O-])cc2c(=O)c3cc(C(=O)O)ccc3oc12.NC(CO)(CO)CO` (stereo not drawn), the ED50 in the test with Rattus norvegicus [15] was 0.19 mg/kg; in the test with Rattus norvegicus [16], 0.005 mg/kg. As to `O=C(O)c1nnn2c1c(O)nc1ccccc12`, the ED50 in the test with Rattus norvegicus [17] came out at 0.084 mg/kg. This compound also gave an inhibition in vivo at 20 mg/kg in the test on Rattus norvegicus [18] of 45%. Turning to `CCCn1c(=O)c2nc(C(=O)OCC)cn2c2ccccc21`, the 50% effect level in the test on Rattus norvegicus [19] (ED50) was put at a dose of 1.21 mg/kg. For `O=C(Nc1nn[nH]n1)c1cn2c(n1)COc1ccccc1-2`, in the test on Rattus norvegicus [20], the ED50 is 0.33 mg/kg. Also, in the test with Rattus norvegicus [21], the ED50 entry was “inactive”. Compound `Cn1c(=O)c2cc(C(=O)O)nn2c2ccccc21` showed an ED50 in the test on Rattus norvegicus [22] of 0.19 mg/kg. On to `CS1(=O)=Nc2nc(C(=O)O)cn2-c2ccccc21` (stereo not drawn), for which the ED50 in the test with Rattus norvegicus [23] amounted to 2.59 mg/kg. As for `O=C(O)c1cn2c(n1)N=S(=O)(c1ccccc1)c1ccccc1-2` (stereo not drawn), it took a dose of 1.92 mg/kg to reach the 50% effect level in the test on Rattus norvegicus [24] (ED50). Regarding `OCc1cn2c(cnc3ccccc32)n1`, the ED50 with Rattus norvegicus [25] came out at 0.156 mg/kg; with Rattus norvegicus [26] it was 0.061 mg/kg. In turn, `O/N=C\c1cn2c(n1)COc1ccccc1-2` gave an Inhibition in the test on Rattus norvegicus [27] of 42%.

In the test on Rattus norvegicus [28], `O=C(O)c1cc2c(O)nc3ccccc3n2n1` came in with a median effective dose (ED50) of 0.33 mg/kg.
